{
  "source": "patent US8299034B2",
  "about": "“Nutritional compositions for promotion of bone growth and maintenance of bone health comprising extracts of for example rosemary or caraway” (Nestec S.A., priority 2008, dated 2012)",
  "key": {"BMP-2": {"test_system": "BMP-2", "assay": "BMP-2 high throughput gene reporter assay", "assay_type": "cell-based", "from_the_text": "(§1) The following bioassays were used for bone formation analysis • BMP-2 gene reporter assay (high throughput screen) • Alkaline phosphatase in osteoblast cells • Calvaria organ culture in vitro, bone formation • Injection into calvaria in vivo, bone formation.\n(§2) For example, extracts were screened for bone formation by a high throughput gene reporter assay for BMP-2 followed by an alkaline phosphatase assay and an organ culture model and finally by injection into mice calvaria in vivo. Subfractions of positive extracts and/or pure compounds were further tested for activity. Analysis of the chemical composition of one active extract was performed in order to determine the active compounds.\n(§3) The screening for bone formation was carried out in several stages: • (i) BMP-2 high throughput gene reporter assay of non-hydrolyzed MeOH/H2O extracts (1a) and corresponding glycosidase hydrolyzed extract in ethyl acetate (1b). […] Extracts were assessed in a 4-day in vitro neonatal murine calvarial assay. Bones were incubated with the extracts for the entire 4 days. • (vi) Resorption activity monitored by measuring the amount of type I collagen released in the media as osteoclasts digest bone."}, "osteoblast cells": {"test_system": "osteoblast cells", "assay": "Alkaline phosphatase assay in osteoblast cells", "assay_type": "cell-based", "protocol": "as §1, §3"}, "bone formation": {"test_system": "bone formation", "assay": "Bone formation bioassays, assay not specified (anabolic potential)", "from_the_text": "as §1\nas §2, with “activity.” for “activity. Analysis of the chemical composition of one active extract was performed in order to determine the active compounds.”\n(§4) The rosemary plant extracts and the pure compounds were tested in an osteoblast/osteoclast co-culture system."}, "NQO1 in hPOBtert cells": {"test_system": "NQO1 in hPOBtert cells", "assay": "NQO1 induction, immunoblot", "assay_type": "cell-based, human", "protocol": "Preparation of cytoplasmic extracts—hPOBtert cells were washed two times with cold phosphate-buffered saline and harvested with lysis buffer (1% Triton X-100, 20 mM Tris/HCL pH 8, 137 mM Nacl, 10% Glycerol, 2 mM EDTA pH 8, and freshly added proteinase inhibitors: 1 mM phenylmethylsulfonylfluoride, 0.15 U/ml Aprotinin, 10 μg/ml Leupeptide and 10 μg/ml Pepstatin). The samples were centrifuged at 13000 rpm, 4° C. for 5 min and the supernatant transferred to a fresh tube. The protein concentration was determined using the BioRad protein assay. Approximately 50 μg of each sample were mixed with a suitable volume of sample buffer, denatured for 5 min at 95° C. together with 5 μl protein standard, chilled on ice, and loaded on a 10% ready gel, and submitted to immunoblot analysis using anti-NQO1 antibodies.\nImmunoblotting—50 μg of protein cell lysate were resolved by SDS-PAGE. After electrophoresis, proteins were transferred to a PVDF membrane (Invitrogen) according to the manufacturer's protocol. Membranes probed for OPN and NQO1 were blocked and probed in 5% milk in Tris-buffered saline/Tween (20 mM Tris base, pH 7.6, 137 mM, 0.1% Tween 20). The blots were visualised by chemiluminescence development, Western blotting detection system (Amersham Biosciences).\nAntibodies—The NQO1 (sc-16464)-specific antibodies were purchased from Santa Cruz Biotechnologies Inc (Santa Cruz, Calif.). […]"}, "[1]": {"test_system": "neonatal murine calvarial bones", "assay": "Calvaria organ culture in vitro, bone formation", "assay_type": "cell-based", "conditions": "phenolics tested at 1-10 μM", "protocol": "as §1, §3"}, "OPG/RANKL": {"test_system": "OPG/RANKL", "assay": "Osteoblast/osteoclast co-culture system, OPG/RANKL regulation", "assay_type": "cell-based", "protocol": "as §4"}, "[2]": {"test_system": "Osteopontin (OPN) mRNA in hPOBtert cells", "assay": "Osteopontin (OPN) mRNA induction by real-time PCR", "assay_type": "cell-based, human", "conditions": "48 h, normalised to β-actin", "protocol": "Cell culture—HPOBTert osteoblasts were seeded on collagen-coated plates and grown in MEM Eagle α Modification medium supplemented with 10% fetal bovine serum, 1% L-glutamine and penicillin/streptomycin, 1 mM β-glycerolphosphate and 50 μg/ml ascorbic acid in a humidified atmosphere of 5% CO2, and 95% air at 37° C. When carnosol and inhibitors were added, an equivalent amount of Me2SO was used as a vehicle control.\nAnalysis of mRNA levels by Real-Time PCR—Total cellular RNA was extracted using the NucleoSpin RNA II kit (Macherey-Nagel, Switzerland). Equal amounts (1 μg) of RNA from the different treatments were reverse-transcribed using the First Strand cDNA Synthesis kit for RT-PCR (Roche, Mannheim, Germany). For each sample, 2 μl 10× reaction buffer, 4 μl 25 mM MgCl2, 2 μl nucleotide mix, 2 μl random primers, 1 μl RNAse inhibitor and 0.4 μl AMV reverse transcriptase from the kit were added to the sample. The reverse transcriptase was performed at the following thermal cycling conditions (25° C. for 10 min, 42° C. for 60 min, and 75° C. for 5 min) using the PTC-100™ […]).\nReal-time Quantitative PCR—Quantitative PCR was performed in 25 μl in triplicates. This consisted of 12.5 μl of Taqman 2× Universal PCR Master Mix, 1.25 μl Assay-on-Demand primers and probes (Applied Biosystems, USA) and 6.25 μl RNAse free water. […]"}},
  "data": [
    {"smiles": "O=c1cc(-c2ccc(O)cc2)oc2cc(O)c(O)c(O)c12", "note": "[Scutellarein]", "values": [
      {"measurement": "BMP-2 induction", "setting": "BMP-2; 5, 10 μM", "value": "3-4X"},
      {"measurement": "ALP activity induction", "setting": "osteoblast cells; 10 μM", "value": 2, "unit": "X"}
    ]},
    {"smiles": "CC(C)c1cc2c(c(O)c1O)[C@@]13CCCC(C)(C)[C@@H]1C[C@@H]2OC3=O", "note": "[Carnosol]", "values": [
      {"measurement": "anabolic potential", "setting": "bone formation", "value": "anabolic potential"},
      {"measurement": "NQO1 expression", "setting": "NQO1 in hPOBtert cells", "value": "induces the expression of the phase II enzyme NQO1"},
      {"measurement": "BMP-2 induction", "setting": "BMP-2; 2.5-10 μM", "value": "4.5-7X"},
      {"measurement": "Bone formation in organ culture", "setting": "[1]", "value": "Yes"},
      {"measurement": "ALP activity induction", "setting": "osteoblast cells; 2.5-10 μM", "value": 2, "unit": "X"},
      {"measurement": "regulation of OPG/RANKL", "setting": "OPG/RANKL", "value": "activity for regulation of the key cytokines controlling bone remodeling"},
      {"measurement": "OPN mRNA levels", "setting": "[2]", "value": "induce OPN expression dose-dependently"}
    ]},
    {"smiles": "O=c1c(O)c(-c2ccc(O)cc2)oc2cc(O)cc(O)c12", "note": "[Kaempferol]", "values": [
      {"measurement": "anabolic potential", "setting": "bone formation", "value": "anabolic potential"},
      {"measurement": "BMP-2 induction", "setting": "BMP-2; 1-10 μM", "value": 2.5, "unit": "X"},
      {"measurement": "Bone formation in organ culture", "setting": "[1]", "value": "Yes"},
      {"measurement": "ALP activity induction", "setting": "osteoblast cells; 2.5-10 μM", "value": "2-4X"}
    ]},
    {"smiles": "COc1ccc(-c2cc(=O)c3c(O)cc(O)cc3o2)cc1", "note": "[Acacetin]", "values": [
      {"measurement": "BMP-2 induction", "setting": "BMP-2; 5-10 μM", "value": 5.5, "unit": "X"},
      {"measurement": "ALP activity induction", "setting": "osteoblast cells; 5-10 μM", "value": 2, "unit": "X"}
    ]},
    {"smiles": "COc1c(OC2OC(COC(=O)C=Cc3ccc(O)cc3)C(O)C(O)C2O)cc2oc(-c3ccc(O)c(O)c3)cc(=O)c2c1O", "note": "(stereo not shown) [6″-Coumaroylnepitrin]", "values": [
      {"measurement": "anabolic potential", "setting": "bone formation", "value": "anabolic potential"}
    ]},
    {"smiles": "COc1cc(O)c2c(=O)cc(-c3ccc(O)cc3)oc2c1", "note": "[Genkwanin]", "values": [
      {"measurement": "BMP-2 induction", "setting": "BMP-2; 5 μM", "value": 4, "unit": "X"},
      {"measurement": "ALP activity induction", "setting": "osteoblast cells; 10 μM", "value": 1.5, "unit": "X"}
    ]},
    {"smiles": "COc1cc(C=CC(=O)OCC2OC(Oc3cc4oc(-c5ccc(O)c(O)c5)cc(=O)c4c(O)c3OC)C(O)C(O)C2O)ccc1O", "note": "(stereo not shown) [6″-Feruloylnepitrin]", "values": [
      {"measurement": "anabolic potential", "setting": "bone formation", "value": "anabolic potential"}
    ]},
    {"smiles": "COc1c(O)cc2oc(-c3ccc(O)c(O)c3)cc(=O)c2c1O", "note": "[Eupafolin]", "values": [
      {"measurement": "anabolic potential", "setting": "bone formation", "value": "anabolic potential"},
      {"measurement": "BMP-2 induction", "setting": "BMP-2; 2.5-10 μM", "value": "3-8X"},
      {"measurement": "Bone formation in organ culture", "setting": "[1]", "value": "Yes"},
      {"measurement": "ALP activity induction", "setting": "osteoblast cells; 5 μM", "value": 2, "unit": "X"},
      {"measurement": "ALP activity induction", "setting": "osteoblast cells; 10 μM", "value": 4, "unit": "X"},
      {"measurement": "regulation of OPG/RANKL", "setting": "OPG/RANKL", "value": "activity for regulation of the key cytokines controlling bone remodeling"}
    ]}
  ]
}
